These are literature values, as cited in paper PMC8450225 (Bioorganic & Medicinal Chemistry, 2021).

Where two headings read alike, the source gives them in different places. Primed or numbered codes have the meaning given here. Bz′ = not defined here Bounds are passed on as bounds.

The test system of one series is dengue serotype 2. Conditions: at 1 µM concentration, HuH-7 and K562 cell lines.
A further series relates to HuH-7 cells. The conditions noted are these: 1 µM, three days of incubation on HuH-7 cells, Alamar Blue.
The next series relates to WNV NS2B-NS3 pro. The conditions noted are these: 50 µM substrate concentration and 25 µM compound concentration.
The subject of a further series is DENV NS2B-NS3 pro. The conditions noted are these: 50 µM substrate concentration and 50 µM compound concentration.
Series [1] relates to DENV2 pro.
Series [2] relates to DENV2. The conditions noted are these: DENV2 viral replication assay.
The subject of series [3] is DENV2 pro. The source holds these as a separate data set.
For series [4], the system named is DENV2. The conditions noted are these: DENV2 replication inhibition, BHK21 cells.
The next series relates to DENV 1–4 pro. Conditions: range over DENV 1–4 pro.
Series [5] relates to DENV2 pro. This is another data set of the same source.
The test system of series [6] is DENV2. The conditions noted are these: antiviral activity against DENV2.
For series [7], the system named is DENV2 pro. The source holds these as a separate data set.
A further series deals with NS2B-NS3 pro. Conditions: read-out: Ki (Reported).
The test system of series [8] is DENV2 pro. This is another data set of the same source.
The next series has as its system DENV. Conditions: at 100 µM.

Regarding `O=C1c2c(O)ccc([N+](=O)[O-])c2C(=O)c2c([N+](=O)[O-])ccc(O)c21` [ARDP0006], the “reduction of dengue viral titer” value in the series on dengue serotype 2 is over 1 log PFU/mL. In the series on HuH-7 cells, the cytotoxicity result is reported as “non-cytotoxic”. For `CN(C)C(=O)COC(=O)Cc1ccc(OC(=O)c2ccc(NC(=N)N)cc2)cc1` [Camostat], the “Percentage inhibition of NS2B-NS3 pro, WNV” value with WNV NS2B-NS3 pro is 12.6%. The “Percentage inhibition of NS2B-NS3 pro, DENV” value in the series on DENV NS2B-NS3 pro was 19.6%. As usually defined, the EC50 is the concentration that produces a half-maximal response. As to `CC(=O)O[C@H]1CC(C)(C)C(=C=C/C(C)=C/C=C/C=C/C=C(C)/C=C2C=C(/C=C/[C@@]34O[C@]3(C)C[C@@H](O)CC4(C)C)C(=O)O/2)[C@](C)(O)C1` [Compound 35, peridinin], the EC50 in the series with DENV2 pro [1] was 8.5 ± 0.41 µM. `O=C(Nc1nc2cc(O)c(O)cc2s1)c1ccccc1Sc1ccc(C(F)(F)F)cc1` [Compound 38]: the EC50 with DENV2 [2] was over 3000 nM. A word on the IC50: it is the concentration that inhibits the measured activity by half. As to `O=C(Nc1nc2cc(O)c(O)cc2s1)c1ccccc1Oc1ccc2cc(O)ccc2c1` [Compound 39], in the series with DENV2 pro [3], the IC50 was 4.2 ± 0.44 µM.

With `COc1cc2nc(NC(=O)c3ccccc3Sc3ccc(C(F)(F)F)cc3)sc2cc1OC` [Compound 40], in the series on DENV2 pro [3], the IC50 result was “inactive”. As for `Cc1ccc(C2=NC(=O)/C(=C/c3cc(O)c(O)c(Br)c3)S2)cc1` [Compound 42], in the series on DENV2 [4], the EC50 was 6.9 ± 0.6 µM. For the same compound, in the series with DENV 1–4 pro, the IC50 is 2940 to 4060 nM. Regarding `Cc1ccc(C(=O)c2cc(O)c(O)c([N+](=O)[O-])c2)cc1` [Compound 43], the EC50 in the series on DENV2 [4] was 2.29 µM. Moreover, the IC50 with DENV 1–4 pro is 640 to 1150 nM. `O=C(OC[C@H]1O[C@@H](OC(=O)c2cc(O)c(O)c(OC(=O)c3cc(O)c(O)c(O)c3)c2)[C@H](OC(=O)c2cc(O)c(O)c(OC(=O)c3cc(O)c(O)c(O)c3)c2)[C@@H](OC(=O)c2cc(O)c(O)c(OC(=O)c3cc(O)c(O)c(O)c3)c2)[C@@H]1OC(=O)c1cc(O)c(O)c(OC(=O)c2cc(O)c(O)c(O)c2)c1)c1cc(O)c(O)c(OC(=O)c2cc(O)c(O)c(O)c2)c1` [Compound 44]: the half-maximal inhibitory concentration (IC50) in the series with DENV 1–4 pro is 130 to 770 nM. Consider `CCc1ccc(NS(=O)(=O)c2ccc(N3C(=O)c4ccccc4C3=O)cc2)cc1` [Compound 46], for which the IC50 in the series on DENV2 pro [5] is 48.2 µM. For `CCCCC1C(C(=O)N(C)OC)C(c2ccccc2)CCN1C(=O)OC(C)(C)C` (stereo not shown) [Compound 51], the EC50 in the series on DENV2 [6] was 2400 nM.

On to `Cc1cc(O)c(S(=O)(=O)O)cc1Cc1cc(S(=O)(=O)O)c(O)c(Cc2cc(S(=O)(=O)O)c(O)cc2C)c1C` [Compound 60], for which the IC50 entry in the series on DENV2 pro [7] is on record as “IC50 = 0.48 μg/mL”. Usually Ki stands for the equilibrium dissociation constant of an inhibitor or competing ligand from its target. Take Ac-RTSKKR-NH2: on NS2B-NS3 pro, the Ki was 12.1 µM. Take “BZ-Ala-Lys-Arg-Arg-H ({Bz′}-AKRR-aldehyde; also: C-terminal aldehyde)”: the Ki on NS2B-NS3 pro is 5.3 µM. “Bz-Arg-Lys-(4-CF3-benzyl ether)-D-Phg-NH2 [Compound 7]”: the half-maximal inhibitory concentration (IC50) with DENV2 pro [8] was 69 nM. Regarding Bz-Arg-Lys-(4-benzyloxy)-D-Phg-NH2, the IC50 in the series with DENV2 pro [8] was 367 nM.

As for Bz-Arg-Lys-Phg-NH2 [reference compound], the IC50 in the series with DENV2 pro [8] (starting tripeptide) was 3320 nM. Take kaempferol-3-O-rutinoside [Compound 24]: the DENV inhibition with DENV was 77.7%.
